# Experimental data taken from a melting point compilation (Tetko et al.; mined from patent text by program, amines drawn as free bases though some values may be those of a salt).
row,SMILES,melting point [°C]
1,O=C(Nc1cccc(-c2ccnc3c(C(=O)c4cccs4)cnn23)c1)c1ccncc1,220 to 222
2,COc1cc(OC)nc(NC(=O)NS(=O)(=O)c2ncccc2OS(=O)(=O)N(C)C)n1,155 to 157
3,CS(=O)(=O)c1ccc(-c2cc(CBr)nn2CC2CCCCC2)cc1,141 to 143
4,CCCNCC(O)c1ccc(S(C)(=O)=O)cc1 (centres undefined),120 to 123
5,CCOCc1nc2c(N)nc(C)c(C)c2n1CCOCc1ccccc1,107 to 108
6,CCCc1ccc2nc(C(F)(F)F)c(S(N)(=O)=O)n2n1,151 to 152
7,Cc1ccc(C(=O)NC(NC(=NC#N)Nc2cccc(F)c2)C(C)(C)C)cc1 (centres undefined),193 to 194
8,CCc1nc(C)ccc1OC1SCC(OC(C)=O)C(OC(C)=O)C1OC(C)=O (centres undefined),123 to 127
9,COc1ccc(CN(C)CCCCCc2ccc(NC(=O)c3cccc4c(=O)c5cccc(F)c5[nH]c34)cc2)cc1OC,130
10,COC(=O)C1=CC(NC(=O)OC(C)(C)C)CO1 (centres undefined),94 to 96
11,CC(C)(C)OC(=O)NC(CSCc1ccc(-c2ccc(-c3ccc4c(c3)OCO4)cc2)cc1)C(=O)O (centres undefined),178 to 180
12,COc1ccc(-c2ccc(C(=O)Nc3ccc4cc(CN5CCCC5)cnc4c3F)c(F)c2)cc1,182 to 183
13,CCC1=C(C)CN(C(=O)NCC2CCOc3cc(O)c(S(N)(=O)=O)cc32)C1=O (centres undefined),175
14,CC(C)(CNS(C)(=O)=O)Nc1nc(Cl)ncc1Cl,156 to 158
15,CN(Cc1ccc(NC(=O)C2=Cc3cc(-c4ccc(C(C)(C)C)cc4)ccc3OCC2)cc1)C1CCOCC1,193 to 194
16,O=C(O)COc1ccc(CCc2ccc(-c3ccc(C(F)(F)F)cc3)cc2)c2c1CCC2,188 to 190
17,CCCC(Cc1ccc(OCCN2CCCCCC2)cc1)(C(=O)NO)S(=O)(=O)c1ccc(OC)cc1 (centres undefined),85
18,CS(=O)(=O)c1ccc2c(c1)C(=O)CC2,155
19,CCCc1cc(-c2csc(-c3ccc(OCC)c(OCC)c3)n2)cc(C(=O)O)c1O,179 to 180
20,Cn1nc(-c2cc(F)c([N+](=O)[O-])cc2F)cc1C(F)(F)F,80 to 81
21,CCOc1nc(C(F)(F)F)cc(=O)n1-c1cc(OC(C)C)c(Br)cc1F,106 to 108
22,CCCCCCCCCCCCOc1ccc(-c2ncc(-c3ccc(O)c(F)c3F)cn2)cn1,111 to 118
23,CC(C#CC1CC1)N(O)C(N)=O (centres undefined),142 to 143
24,CN1CCc2[nH]c(=O)n3nc(-c4ccccc4F)nc3c2C1,285 to 287
25,Cc1c(C2(c3cccs3)CCC(c3ccccc3)(N(C)C)CC2)[nH]c2ccccc12 (centres undefined),202 to 205
26,CS(=O)(=O)c1ccc(-c2cnn(CC(F)(F)F)c(=O)c2Nc2cc(F)cc(F)c2F)cc1,190 to 194
27,CCOC(=O)C1=C(C)N(C)C(C)=C(C(=O)OC)C1c1cc([N+](=O)[O-])ccc1Cl (centres undefined),164
28,CC(=O)OC1CCC2C3CCC4=CC(=O)CCC4(CO)C3CCC12C (centres undefined),166 to 168

row,SMILES,melting point [°C]
1,COc1cc(NC(=O)N2CCOCN2)c(Cl)cc1Cl,128 to 130
2,CN(C)CCCc1nc2ccccc2[nH]1,117 to 119
3,O=Cc1ccc(N2CCN(c3ccncc3)CC2)cc1,116 to 118
4,COC(=O)C=CCCC(C)C1CCC2C3CCC4CC(OC=O)CCC4(C)C3CC(OC=O)C12C (centres undefined),112 to 115
5,CCN(CC)CCNC(=O)N1CCCC(S(=O)(=O)c2ccc(OCCN(C)C)cc2)C1 (centres undefined),79 to 80
6,CC(CO)(CO)OCc1ccccc1F,74.5 to 75
7,N[C@@H](Cc1ccc(O)cc1)[C@H](O)C(F)(F)F,172 to 174
8,COC(=O)c1cc(Cl)c(N=C2NCCN2C(C)=O)c(Cl)c1,188 to 189
9,CC1(C)N=C(c2ccccc2F)c2cc([N+](=O)[O-])ccc2NC1=O,241
10,Nc1ccc(OC(F)(F)F)c(C(=O)O)c1,196 to 197
11,Cc1cccc(I)c1C(=O)NC(C)(C)CS(C)(=O)=O,134 to 136
12,COc1ccc(C(=O)c2cccc(NC(=O)c3ccn4c3CSC4c3cccnc3)c2)cc1 (centres undefined),140
13,COCCOc1ccc(-c2ccc3c(c2)C=C(C(=O)Nc2ccc(CN(C)C4CCOCC4)cc2)CCS3(=O)=O)cc1,227 to 231
14,CNCC1Cc2c(Cl)cc3c(c2O1)CCC3 (centres undefined),58 to 60
15,COc1ccc(C=C(C#N)c2ccncc2)cc1OC1CCCC1,125 to 127
16,CNc1cc(Oc2ccc(NC(=O)Nc3ccc(-c4cccnc4)c(C(F)(F)F)c3)cc2)ncn1,118 to 123
17,N#CC(C#N)=CN(N=C(C#N)C#N)c1ccc(F)cc1,138 to 139
18,CC1CCNC(=C[N+](=O)[O-])N1c1ccc(Cl)nc1 (centres undefined),184
19,Cc1cc(C2=CCN(CCCC(O)c3ccccc3)CC2)on1 (centres undefined),108 to 109
20,CCOC1(C#N)NC(=O)C(=O)NC1(C#N)OCC (centres undefined),205 to 208
21,CCCCOCCOc1ccc(-c2ccc3c(c2)C=C(C(=O)Nc2ccc(SCc4n[nH]c(=O)n4CCC)cc2)CCN3CC(C)C)cc1,98 to 101
22,CONCc1nc2c(N)nc(C)c(C)c2n1CC(C)C,154 to 156
23,CNC(=O)N1CC(=O)Nc2ccc([N+](=O)[O-])cc2C1c1ccccc1 (centres undefined),176 to 180
24,Cc1cccc(N2CCN(c3ccc(S)nn3)CC2)c1,174
25,CNc1nccc(-c2c(-c3ccc(F)cc3)ncn2C2CC(C)(C)NC(C)(C)C2)n1,221 to 222
26,CCCCCC(C)C(C)c1cc(O)c2c3c(c(=O)oc2c1)CSCC3 (centres undefined),150 to 152
27,COC(=O)CSc1ccc(N2CC(CNC(C)=O)OC2=O)cc1F (centres undefined),119 to 120

# More lines, now with the values ahead:
row,melting point [°C],SMILES
1,107 to 111,O=C(NC[C@H](O)[C@@H](O)[C@H](O)C(=O)CO)OCc1ccccc1
2,191 to 193,O=C(Nc1ccc(N2CCN(Cc3ccc[nH]3)CC2)cc1)c1ccccc1-c1ccc(C(F)(F)F)cc1
3,138,O=S1(=O)c2cccc3cccc(c23)N1CCCCN1CCN(c2noc3ccccc23)CC1
4,85 to 87,O=S(=O)(N[C@H](CO)Cc1c[nH]c2ccccc12)c1cccc2ccccc12
5,238 to 240,CN(C)C(=O)Cc1ccc2c(c1)sc1nc(=O)cc(-c3ccccc3)n12
6,121 to 124,CCc1nc2ccccc2n1C1CCN(CCCNc2ccc(F)cc2)CC1
7,174 to 175,COc1ccc(-c2[nH]nc3c2C(=O)c2c(NC(C)=O)cccc2-3)cc1
8,71 to 73,C[C@H](C(=O)c1ccccc1F)n1ccn(-c2ccc(OCC(F)(F)C(F)F)cc2)c1=O
9,74 to 75,O=C(O)Cc1cccc(F)c1OCCc1ccccc1
10,194 to 197,O=C(c1cccc2cc[nH]c12)N1CCN(c2ncccn2)CC1
11,198 to 201,Cc1nc(-n2cc(C(=O)NCc3ccc(F)cc3)nn2)sc1C(=O)NCc1ccccc1
12,275 to 280,CCCCn1c(=O)[nH]c2nc3ccccc3n2c1=O
13,137 to 138,O=C(/C=C/c1cccc(Cl)c1)N1CCCC1
14,70 to 71,Nc1cccc(C(=O)OC2CCN(Cc3ccccc3)CC2)c1
15,98 to 101,NS(=O)(=S)CCCc1ccccc1 (centres undefined)
16,215 to 217,O=C(c1ccncc1)[N+]1([O-])CCC(C(O)(c2ccc(Cl)cc2)c2nccs2)CC1 (centres undefined)
17,134 to 135,CC1(C)CN=C(c2cnc3ccccc3c2)c2ccccc2O1
18,232 to 234,CCn1cc(C(=O)O)c(=O)c2cc(F)c(N3CCNC(c4ccc(Cl)s4)C3)cc21 (centres undefined)
19,169 to 173,NC(=O)c1cc(C(=O)CN(Cc2ccccc2)Cc2ccccc2)ccc1OCC(O)CO (centres undefined)
20,247 to 248,NC(=O)CC1(c2ccccc2)C(=O)Nc2ccc(Cl)cc21 (centres undefined)
21,80 to 81.6,CCCCN(C)C(=O)c1cccc(-c2nc(=O)c3ccccc3s2)n1
22,163 to 164,CSc1ccc(CC2C(C)=C(CCN(O)C(N)=O)c3ccccc32)cc1 (centres undefined)

row,melting point [°C],SMILES
1,144 to 145,O=[N+]([O-])c1ccc(OCCc2ccc(CO)cn2)cc1
2,81 to 82,COc1ccc(C2=NC(C)(C)CO2)c(Cc2ccccc2)c1OC
3,140 to 142,CCOC(=O)C(Cc1cc2cc(C#N)ccc2o1)c1ccc(O)cc1 (centres undefined)
4,130 to 132,O=C1NC(=O)C(Cc2ccc(N3CCC(NC[C@H](O)COc4cccnc4)CC3)cc2)S1 (some centres undefined)
5,192 to 194,CCCCCC(=O)NCc1nc(-c2ccc3c(c2)Nc2ccccc2S3)cs1
6,302 to 304,O=C(O)c1ccc2c(c1)Sc1ccc(Cl)cc1C=C2
7,183 to 185,CCOC(=O)Cc1c(C(=O)O)c(Br)c(C(=O)c2ccc(Cl)cc2)n1C
8,280 to 283,O=C(CCNc1c(C(=O)O)[nH]c2cc(Cl)cc(Cl)c12)c1ccccc1Cc1ccccc1
9,110 to 113,CN(C)Cc1nc(C(=O)O)nn1-c1ccc(Cl)cc1C(=O)c1ccccc1Cl
10,151 to 153,O=C1c2ccccc2C(=O)N1CCOc1ccc([N+](=O)[O-])cc1
11,166 to 168,CNc1nc2ccc(Cl)cc2c2nc(-c3ccco3)nn12
12,220 to 222,O=C(Nc1n[nH]c(=S)s1)N[C@@H](Cc1ccccc1)C(=O)N1CCN(c2ccccn2)CC1
13,199 to 200,O=C(Nc1cccc2c(CCO)c(Br)cnc12)c1c(Cl)cccc1Cl
14,125 to 127,O=C(NCCC12CC3CC(CC(C3)C1)C2)c1ccccc1Cl
15,173 to 174,CC(C)c1nccn1-c1nc(-c2ccc(Cl)cc2)c(CCC(=O)O)o1
16,288 to 290,COc1cc(CC(C#N)=CNc2ccccc2)cc(OC)c1C(N)=O
17,125 to 127,Cn1cc(C2=C(c3cn(CCCSc4ncccn4)c4ccccc34)C(=O)NC2=O)c2ccccc21
18,108 to 111,COc1ccc(N2C=CN(CCC(C)(C)NCC(O)c3ccc(OCc4ccccc4)c(CO)c3)C2)cc1 (centres undefined)
19,190 to 195,CCCCOC(=O)c1cc2c3ccccc3[nH]c(=O)n2n1
20,142 to 144,CCCC(=O)c1cnc2c(C=O)cccc2c1Nc1ccccc1C
21,116 to 118,OCCCNc1nc2ccccc2n1-c1ccccc1
22,156 to 158,NC(=O)CN1Cc2ccccc2CCC1=O
